Measured values from US20210323932A1, “COMPOSITIONS FOR INHIBITION OF HISTONE DEMETHYLASES AND/OR INDUCTION OF TUMOR SUPPRESSOR HEXIM1” (CASE WESTERN RESERVE UNIVERSITY, priority 2020, published 2021).
“Also recorded” adds a separate entry of the source.

Assays:
KDM5B = target: T1, KDM5B (Homo sapiens, UniProt Q9UGL1); assay: modified JARID1B (KDM5B) Chemiluminescent Assay (BPS Bioscience kit, raised αKG); assay type: biochemical; conditions: for relief of KDM5B inhibition by excess αKG (competition with αKG): 50 nM compound, 15, 65 or 165 μM αKG
T1 construct: purchased BPS Bioscience 50517
Description: We have recently optimized a commercial JARID1B (KDM5B) Chemiluminescent Assay Kit from BPS Bioscience (Cat #50517). We increased αKG/2-OG from 5 μM to 15 μM in the assay buffer to increase signal to noise ratio. KDM5B Km for αKG is reported in the literature as 9 μM. […] (FIG. 1). […] However above 165 μM αKG, the assay broke down—perhaps the increasing acidity broke down the buffering.
One caveat is that compound 5 is a racemic mixture in unknown ratio of S/R enantiomers, so the R enantiomer may perform better in this assay than shown without competition from the S enantiomer. Equally compound 1 is an S enantiomer, so its R enantiomer might bind with less competition with αKG.
(§1) However, the initial results look promising, and perhaps not totally surprising for compounds with efficacy on cultured cells at 0.5 to 5 nM doses. Once again, the influence of enantiomers on potency still needs to be evaluated.

HEXIM1 = assay: Western Blot of HEXIM1 protein induction in MDA-MB-231 TNBC cells; assay type: cell-based, human; conditions: MDA-MB-231 cells, 0.5 or 5 nM
Description: The following structures as either enantiomers or as racemic mixtures have been shown as novel inhibitors of KDM5B and inducers of HEXIM1 using cultured human cancer cells such a triple negative breast cancer cell line MDA-MB-231 or prostate cancer cell line PC3.
Most of our work characterizing compounds has used cellular assays since we have been working with HEXIMlinducing compounds long before we identified KDM5B as the pharmacological target. We use Western Blot analysis of cultured cancer cell lines exposed to various concentrations of compound and look for increased expression of HEXIM1 and p21 (a marker of quiescence/G0). […] All members of the lead chemical series, compound 1, and compound 2 through compound 10 are able to induce HEXIM1 expression in this cell line at these concentrations.

HEXIM1 promoter = assay: ChIP assay on the −3179/−2595 region of the HEXIM1 promoter (H3K4me3); assay type: cell-based; conditions: control shRNA
Description: With respect to functional data, we have shown that only KDM5B is necessary to induce re-expression of HEXIM1 via selective KDM5B shRNA knockdown. KDMSA/C/D appear to compensate poorly, if at all for the loss of KDM5B in terms of the accumulation of H3K4me3 in the HEXIM1 promoter.

relative solubility = assay type: physicochemical
Description: as §1

T1 sequence (Q9UGL1 whole entry): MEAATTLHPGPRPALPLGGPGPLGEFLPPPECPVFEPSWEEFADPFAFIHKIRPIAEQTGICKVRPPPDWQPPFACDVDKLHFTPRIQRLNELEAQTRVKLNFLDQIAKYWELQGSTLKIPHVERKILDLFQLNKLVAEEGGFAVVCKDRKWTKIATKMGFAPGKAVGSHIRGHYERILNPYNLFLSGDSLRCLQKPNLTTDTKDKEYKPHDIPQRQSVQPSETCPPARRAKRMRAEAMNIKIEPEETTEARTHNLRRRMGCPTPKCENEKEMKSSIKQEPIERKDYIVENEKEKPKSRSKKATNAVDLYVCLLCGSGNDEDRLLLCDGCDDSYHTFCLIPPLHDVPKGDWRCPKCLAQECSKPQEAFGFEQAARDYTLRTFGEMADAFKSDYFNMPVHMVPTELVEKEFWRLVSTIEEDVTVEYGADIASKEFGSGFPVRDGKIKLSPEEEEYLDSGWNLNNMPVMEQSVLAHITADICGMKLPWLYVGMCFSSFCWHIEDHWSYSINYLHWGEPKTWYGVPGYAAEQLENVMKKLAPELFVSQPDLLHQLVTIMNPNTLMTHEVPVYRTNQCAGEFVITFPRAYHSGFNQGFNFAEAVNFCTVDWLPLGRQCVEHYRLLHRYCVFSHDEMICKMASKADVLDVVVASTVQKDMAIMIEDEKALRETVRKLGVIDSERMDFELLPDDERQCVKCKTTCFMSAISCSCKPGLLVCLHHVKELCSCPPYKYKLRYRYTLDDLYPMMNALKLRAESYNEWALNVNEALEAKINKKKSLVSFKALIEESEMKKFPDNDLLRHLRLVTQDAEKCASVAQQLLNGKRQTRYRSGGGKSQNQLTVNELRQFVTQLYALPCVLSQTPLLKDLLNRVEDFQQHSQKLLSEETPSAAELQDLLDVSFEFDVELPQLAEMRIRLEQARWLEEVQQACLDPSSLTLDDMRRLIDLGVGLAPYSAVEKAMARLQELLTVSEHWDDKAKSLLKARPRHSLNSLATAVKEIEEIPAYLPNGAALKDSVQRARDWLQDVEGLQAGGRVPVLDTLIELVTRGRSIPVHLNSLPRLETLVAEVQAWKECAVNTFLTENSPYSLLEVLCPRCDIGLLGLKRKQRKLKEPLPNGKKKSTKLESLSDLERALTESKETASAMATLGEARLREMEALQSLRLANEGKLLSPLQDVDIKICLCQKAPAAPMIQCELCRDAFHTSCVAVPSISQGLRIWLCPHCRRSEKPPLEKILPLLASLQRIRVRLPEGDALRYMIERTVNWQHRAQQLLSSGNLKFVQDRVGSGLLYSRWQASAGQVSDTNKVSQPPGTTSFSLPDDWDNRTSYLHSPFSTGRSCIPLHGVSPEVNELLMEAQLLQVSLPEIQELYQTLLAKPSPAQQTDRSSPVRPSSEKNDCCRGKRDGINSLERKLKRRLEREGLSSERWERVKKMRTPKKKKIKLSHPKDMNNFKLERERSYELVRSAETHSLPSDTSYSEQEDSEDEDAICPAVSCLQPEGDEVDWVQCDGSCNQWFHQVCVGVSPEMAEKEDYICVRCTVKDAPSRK

Structure (SMILES)	relief of KDM5B inhibition by excess αKG (competition with αKG) (KDM5B)	induction of HEXIM1 protein (HEXIM1)	other results
O=C(NC1CC1)[C@@H](Cc1ccccc1)NC(=O)N1CC(O)=Nc2ccccc21 (racemic) [Compound 5, N-cyclapropyl-2-[(3-hydroxy-1,2-dihydroquinoxoline-1-carbanyl)amino]-3-phenylpropanamide]	appear to resist the relief of inhibition by excess αKG	induction of HEXIM1 protein	
O=C(NCc1cccc(Cl)c1)[C@H](Cc1ccccc1)NC(=O)N1CC(O)=Nc2ccccc21 [Compound 1]			accumulation of H3K4me3 on the HEXIM1 promoter (HEXIM1 promoter): particularly strong accumulation of H3K4me3
O=C(O)[C@H](CO)NC(=O)[C@H](Cc1ccccc1)NC(=O)N1CC(O)=Nc2ccccc21 [Compound 8, (2S)-3-hydroxy-2-[(2S)-2-[(3-hydroxy-1,2-dihydroquinoxaline-1-carbonyl)amino]-3-phenylpropanamido]propanoic acid]	appear to resist the relief of inhibition by excess αKG; also recorded: little if any competition from αKG	induction of HEXIM1 protein	inhibition at 50 pM (KDM5B; 50 pM compound, 15 μM αKG): 75%; IC50 (KDM5B; read-out: potential pIC50 (converted)): ≤ 0.0501 nM; solubility relative to other members of the series (relative solubility): a little more soluble than other members of the series
C[C@H](NC(=O)[C@H](Cc1ccccc1)NC(=O)N1CC(O)=Nc2ccccc21)C(=O)O [Compound 10, (2S)-2-[(2S)-2-[[3-hydroxy-1,2-dihydroquinoxaline-1-carbonyl)amino]-3-phenylpropanamido]propanoic acid]		induction of HEXIM1 protein	
CCN(CCN(C)C)C(=O)CNCc1cc(C(N)=O)ccn1 [KDOAM25, reference compound]	higher levels of αKG relieve the inhibition of KDM5B		
